The supplement of paper PMC10307832

Key:
Assay in all cases: relative viability (nuclei count vs DMSO), 5 days (fraction); higher = more cells survive
BI-D1870 + Trametinib = compound: CC(C)CCN1c2nc(Nc3cc(F)c(O)c(F)c3)ncc2N(C)C(=O)C1C [BI-D1870] + CC(=O)Nc1cccc(-n2c(=O)n(C3CC3)c(=O)c3c(Nc4ccc(I)cc4F)n(C)c(=O)c(C)c32)c1 [Trametinib] (partner 0.02 µM)
Outline: (§1)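 Values are medians from duplicate plates. Each reflects relative viability, defined as the nuclei count of treated wells over that of vehicle wells. Lung cancer cell lines in 1536-well plates were pin-tool dosed one day after seeding with one drug alone or with a fixed anchor-drug dose plus five library-drug doses (not always all listed) in √10 steps, then fixed, stained and imaged at 4× after 5 days.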

Zebularine = compound: O=c1ncccn1[C@@H]1O[C@H](CO)[C@@H](O)[C@H]1O [Zebularine]
Outline: (§2)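 Five library-drug doses, separated by factors of √10, were pinned into 1536-well plates holding lung cancer cell lines after an overnight stay at 37 °C. Cells were fixed, permeabilised and Hoechst-stained in one step after 5 days without medium change, then imaged at 4×. Viability compares treated-well with vehicle-well nuclei, counted in MetaXpress, as a median across plates. Passing plates had control CV below 25% and at least one doubling.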

BI-D1870 = compound: CC(C)CCN1c2nc(Nc3cc(F)c(O)c(F)c3)ncc2N(C)C(=O)C1C [BI-D1870]
Outline: as §2

Zebularine + Navitoclax = compound: O=c1ncccn1[C@@H]1O[C@H](CO)[C@@H](O)[C@H]1O [Zebularine] + CC1(C)CCC(c2ccc(Cl)cc2)=C(CN2CCN(c3ccc(C(=O)NS(=O)(=O)c4ccc(N[C@H](CCN5CCOCC5)CSc5ccccc5)c(S(=O)(=O)C(F)(F)F)c4)cc3)CC2)C1 [Navitoclax] (partner 0.5 µM)
Outline: as §1

| Cell Line | relative viability (BI-D1870 + Trametinib; first compound 0.04 µM) | relative viability (BI-D1870 + Trametinib; first compound 0.1265 µM) | relative viability (BI-D1870 + Trametinib; first compound 1.265 µM) | relative viability (BI-D1870 + Trametinib; first compound 4 µM) | relative viability (Zebularine; 1 µM) | relative viability (Zebularine; 3.162 µM) | relative viability (Zebularine; 10 µM) | relative viability (Zebularine; 31.62 µM) | relative viability (Zebularine; 100 µM) | relative viability (BI-D1870; 0.04 µM) | relative viability (BI-D1870; 0.1265 µM) | relative viability (BI-D1870; 0.4 µM) | relative viability (BI-D1870; 1.265 µM) | relative viability (BI-D1870; 4 µM) | relative viability (BI-D1870 + Trametinib; first compound 0.4 µM) | relative viability (Zebularine + Navitoclax; first compound 1 µM) | relative viability (Zebularine + Navitoclax; first compound 3.162 µM) | relative viability (Zebularine + Navitoclax; first compound 10 µM) | relative viability (Zebularine + Navitoclax; first compound 31.62 µM) | relative viability (Zebularine + Navitoclax; first compound 100 µM) |
| --- | --- | --- | --- | --- | --- | --- | --- | --- | --- | --- | --- | --- | --- | --- | --- | --- | --- | --- | --- | --- |
| NCI-H1648 | 0.445 | 0.54 | 0.552 | 0.49 | 1.16 | 1.06 | 0.563 | 0.668 | 0.708 | 0.877 | 0.777 | 0.729 | 0.89 | 0.869 | – | – | – | – | – | – |
| SK-MES-1 | 0.541 | 0.532 | 0.471 | 0.307 | 1.11 | 1.06 | 0.704 | 0.673 | 0.286 | 1.05 | 0.911 | 0.892 | 0.829 | 0.617 | 0.518 | 1.41 | 1.32 | 0.781 | 0.526 | 0.33 |
| HCC-366 | 0.347 | 0.311 | 0.39 | 0.221 | 1.03 | 0.995 | 0.928 | 0.856 | 0.297 | 1.02 | 0.928 | 0.995 | 1.04 | 0.951 | 0.328 | 1.12 | 1.02 | 0.449 | 0.556 | 0.0921 |
| 201T | 0.694 | 0.683 | 0.705 | 0.715 | 1.08 | 0.986 | 0.776 | 1 | 0.947 | 0.989 | 0.962 | 0.975 | 0.985 | 0.959 | 0.703 | 1.21 | 1.21 | 0.981 | 1.19 | 1.18 |
| HCC-827 | 0.551 | 0.495 | 0.456 | 0.432 | 1.08 | 1.03 | 0.851 | 0.877 | 0.47 | 1.05 | 1.05 | 1.04 | 1.03 | 1.01 | 0.463 | 0.98 | 0.986 | 0.968 | 0.714 | 0.418 |
| NCI-H647 | 0.575 | 0.45 | 0.462 | 0.335 | 1.01 | 0.943 | 0.294 | 0.203 | 0.157 | 1.07 | 0.918 | 1.05 | 1.04 | 0.889 | 0.533 | 1.25 | 1.06 | 0.232 | 0.143 | 0.115 |
| NCI-H2023 | 0.537 | 0.389 | 0.516 | 0.349 | 1.17 | 1 | 0.724 | 0.613 | 0.287 | 1 | 0.846 | 0.88 | 0.988 | 0.701 | 0.578 | 1.14 | 1.04 | 0.851 | 0.924 | 0.247 |
| NCI-H520 | 0.645 | 0.627 | 0.612 | 0.302 | 1.11 | 0.957 | 0.52 | 0.388 | 0.26 | 0.963 | 0.79 | 1.11 | 0.927 | 0.851 | 0.683 | 1.16 | 0.994 | 0.442 | 0.427 | 0.294 |
| RERF-LC-KJ | 0.901 | 0.752 | 0.837 | 0.693 | 1.11 | 1.03 | 0.859 | 1.01 | 0.994 | 1.01 | 0.908 | 0.954 | 1.02 | 0.814 | 0.863 | – | 1.08 | 0.507 | 0.939 | 0.968 |
| A-427 | 0.763 | 0.678 | 0.833 | 0.814 | 1.11 | 0.898 | 0.65 | 0.55 | 0.267 | 1.18 | 0.945 | 0.997 | 1.04 | 0.801 | 0.755 | 0.974 | 0.932 | 0.563 | 0.483 | 0.205 |
| NCI-H441 | 0.524 | 0.417 | 0.578 | 0.378 | 1.26 | 0.852 | 0.502 | 0.309 | 0.272 | 1.08 | 0.922 | 0.888 | 1.1 | 1.17 | 0.463 | 0.815 | 0.467 | 0.366 | 0.368 | 0.245 |
| NCI-H1703 | – | – | – | – | 0.856 | 0.815 | 0.606 | 0.899 | 0.667 | 0.92 | 0.708 | 0.905 | 1.02 | 0.806 | – | 1.17 | 0.915 | 0.859 | 1.31 | 0.813 |
| NCI-H1792 | 0.489 | 0.349 | 0.567 | 0.372 | 1.1 | 0.925 | 0.431 | 0.449 | 0.277 | 1 | 0.981 | 0.828 | 1.15 | 0.613 | 0.437 | 0.61 | 0.679 | 0.816 | 0.325 | 0.18 |
| Calu-6 | – | – | – | – | 1.18 | 0.99 | 0.747 | 0.7 | 0.246 | 1.11 | 0.865 | 0.998 | 0.904 | 0.676 | – | 1.03 | 0.825 | 0.649 | 0.647 | 0.225 |
